Results reported in US20030109532A1, “Modulators of dopamine neurotransmission” (priority 2002, published 2003).
Where a name gives a salt, the structure may show the parent alone.

What was measured:
[1] = system: 3,4-dihydroxyphenylacetic acid (DOPAC) in the striatum; assay: In vivo test: neurochemistry, 3,4-dihydroxyphenylacetic acid (DOPAC) in the striatum; design: species or system rat; details: 100 μmol/kg s.c., n=4
Text: (§1) In vivo Test: Neurochemistry
(§2) After the behavioral activity sessions the rats were decapitated and their brains rapidly taken out and put on an ice-cold petri-dish. The limbic forebrain, the striatum, the frontal cortex and the remaining hemispheral parts of each rat were dissected and frozen. Each brain part was subsequently analyzed with respect to its content of monoamines and their metabolites. The monoaminergic indices analyzed were dopamine (DA), 3,4-dihydroxyphenylacetic acid (DOPAC), homovanillic acid (HVA), 3-methoxytyramine (3-MT), serotonin (5-HT), 5-hydroxyindole acetic acid (5-HIAA), and noradrenaline (NA). All monoaminergic indices in the dissected tissue were analyzed by means of HPLC with electrochemical detection as described by Svensson K, et al., 1986, NaunynSchmiedeberg's Arch Pharmacol 334: 234-245 and references cited therein.

rats = assay: In vivo test: behavior, spontaneous motor activity (distance traveled in motility meter); design: species or system rat; details: n=4; for motoractivity in the behavioral assay: 100 μmol/kg s.c., 0-60 min
[2] = system: serotonin in the striatum; assay: In vivo test: neurochemistry, serotonin (5-HT) in the striatum; design: species or system rat; details: n=4
Text: as §1, §2

[3] = system: rats pretreated with d-amphetamine; assay: In vivo test: behavior, d-amphetamine induced hyperactivity; design: species or system rat; details: 100 μmol/kg s.c.; d-amphetamine 1.5 mg/kg s.c. pretreatment, n=4

SMILES	melting point	3,4-dihydroxy-phenylacetic acid in the striatum [1]	motoractivity in the behavioral assay (rats)	also measured
CCCN1[C@H](C)CN(c2cccc(S(C)(=O)=O)c2)C[C@@H]1C (as salt: HCl) [Example 3, cis-4-(3-Methanesulfonyl-phenyl)-2,6-dimethyl-1-propyl-piperazine]	233 °C			
CCCN1CC[C@H](c2cccc(S(C)(=O)=O)c2)[C@H](C)C1 (relative stereo) (as salt: HCl) [Example 4, cis-4-(3-Methanesulfonyl-phenyl)-3-methyl-1-propyl-piperidine]	197 °C			
CCCN1CC[C@H](c2cccc(S(C)(=O)=O)c2)[C@H](C)C1 (relative stereo) [Example 4, cis-4-(3-Methanesulfonyl-phenyl)-3-methyl-1-propyl-piperidine]		1884±98 ng/g tissue	4948±577 cm/60 min	
CCCN1CCN(c2cccc(C(F)(F)F)c2)CC1 [1-propyl-4-(3-triflouro-methyl-phenyl)-piperazine, reference compound]				serotonin in the striatum ([2]; 50 μmol/kg s.c.): 308±18 ng/g tissue; motoractivity in the behavioral assay (behavioral inhibition) (rats; 50 μmol/kg s.c.): 271±137 cm/60 min
CCCN1[C@H](C)CN(c2cccc(C(F)(F)F)c2)C[C@@H]1C [Example 2, cis-2,6-Dimethyl-1-propyl-4-(3-trifluoro-methyl-phenyl)-piperazine]		1388±60 ng/g tissue	3619±483 cm/60 min	serotonin in the striatum ([2]; 100 μmol/kg s.c.): 419±23 ng/g tissue
CCCN1[C@H](C)CN(c2cccc(S(C)(=O)=O)c2)C[C@@H]1C [Example 3, cis-4-(3-Methanesulfonyl-phenyl)-2,6-dimethyl-1-propyl-piperazine]		3140±169 ng/g tissue		d-amphetamine induced hyperactivity [3]: 2492±530 cm/60 min; motor activity (rats; 100 μmol/kg, 30-60 min post injection): 253±73 cm/30 min
